According to PubChem BioAssay (NCI):
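Growth conditions: 96-well plates. Treatment: test compound, 48 hours, 5 concentrations. Analysis: linear interpolation between bracketing concentrations; unreached endpoints set to highest concentration. GI50 is the concentration that inhibits growth by half. TGI: concentration producing complete growth inhibition.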

Experiments:
Assay in all cases: NCI tumour cell line growth inhibition, 48 h
786-0 renal = test system: 786-0 renal
A498 renal = test system: A498 renal
A549 NSCLC = test system: A549 NSCLC
ACHN renal = test system: ACHN renal
BT-549 breast = test system: BT-549 breast
CAKI-1 renal = test system: CAKI-1 renal
CCRF-CEM leukemia = test system: CCRF-CEM leukemia
COLO 205 colon = test system: COLO 205 colon
DU-145 prostate = test system: DU-145 prostate
EKVX NSCLC = test system: EKVX NSCLC
HCC-2998 colon = test system: HCC-2998 colon
HCT-116 colon = test system: HCT-116 colon
HCT-15 colon = test system: HCT-15 colon
HL-60(TB) leukemia = test system: HL-60(TB) leukemia
HOP-62 NSCLC = test system: HOP-62 NSCLC
HOP-92 NSCLC = test system: HOP-92 NSCLC
HS 578T breast = test system: HS 578T breast
HT29 colon = test system: HT29 colon
IGROV1 ovarian = test system: IGROV1 ovarian
K-562 leukemia = test system: K-562 leukemia
KM12 colon = test system: KM12 colon
LOX IMVI melanoma = test system: LOX IMVI melanoma
M14 melanoma = test system: M14 melanoma
MALME-3M melanoma = test system: MALME-3M melanoma
MCF7 breast = test system: MCF7 breast
MDA-MB-231 breast = test system: MDA-MB-231 breast
MDA-MB-435 = test system: MDA-MB-435
MDA-MB-468 breast = test system: MDA-MB-468 breast
MOLT-4 leukemia = test system: MOLT-4 leukemia
NCI-H226 lung = test system: NCI-H226 lung
NCI-H23 lung = test system: NCI-H23 lung
NCI-H460 lung = test system: NCI-H460 lung
NCI-H522 lung = test system: NCI-H522 lung
NCI/ADR-RES ovarian = test system: NCI/ADR-RES ovarian
OVCAR-3 ovarian = test system: OVCAR-3 ovarian
OVCAR-4 ovarian = test system: OVCAR-4 ovarian
OVCAR-5 ovarian = test system: OVCAR-5 ovarian
OVCAR-8 ovarian = test system: OVCAR-8 ovarian
PC-3 prostate = test system: PC-3 prostate
RPMI-8226 leukemia = test system: RPMI-8226 leukemia
RXF 393 renal = test system: RXF 393 renal
SF-268 CNS = test system: SF-268 CNS
SF-295 CNS = test system: SF-295 CNS
SF-539 CNS = test system: SF-539 CNS
SK-MEL-2 melanoma = test system: SK-MEL-2 melanoma
SK-MEL-28 melanoma = test system: SK-MEL-28 melanoma
SK-MEL-5 melanoma = test system: SK-MEL-5 melanoma
SK-OV-3 ovarian = test system: SK-OV-3 ovarian
SN12C renal = test system: SN12C renal
SNB-19 CNS = test system: SNB-19 CNS
SNB-75 CNS = test system: SNB-75 CNS
SR leukemia = test system: SR leukemia
SW-620 colon = test system: SW-620 colon
T-47D breast = test system: T-47D breast
TK-10 renal = test system: TK-10 renal
U251 CNS = test system: U251 CNS
UACC-257 melanoma = test system: UACC-257 melanoma
UACC-62 melanoma = test system: UACC-62 melanoma
UO-31 renal = test system: UO-31 renal

Structure (SMILES): O=C(c1ccc(O)cc1)C1[C@H](c2ccc(Cl)cc2)[C@@H](c2ccccc2)NC12C(=O)Nc1ccc(Br)cc12 (stereo partly drawn)
- GI50 (786-0 renal): 1640 nM
- TGI (786-0 renal): 3000 nM
- GI50 (A498 renal): 13.8 µM
- TGI (A498 renal): 27 µM
- GI50 (A549 NSCLC): 11.8 µM
- TGI (A549 NSCLC): 25.9 µM
- GI50 (ACHN renal): 12.6 µM
- TGI (ACHN renal): 25.2 µM
- GI50 (BT-549 breast): 16.3 µM
- TGI (BT-549 breast): 30 µM
- GI50 (CAKI-1 renal): 10.8 µM
- TGI (CAKI-1 renal): 23.4 µM
- GI50 (CCRF-CEM leukemia): 18.9 µM
- TGI (CCRF-CEM leukemia): 45 µM
- GI50 (COLO 205 colon): 15.8 µM
- TGI (COLO 205 colon): 30 µM
- GI50 (DU-145 prostate): 16.6 µM
- TGI (DU-145 prostate): 31.6 µM
- GI50 (EKVX NSCLC): 11 µM
- TGI (EKVX NSCLC): 23.2 µM
- GI50 (HCC-2998 colon): 14.1 µM
- TGI (HCC-2998 colon): 27.3 µM
- GI50 (HCT-116 colon): 12.6 µM
- TGI (HCT-116 colon): 25.1 µM
- GI50 (HCT-15 colon): 13.6 µM
- TGI (HCT-15 colon): 26.8 µM
- GI50 (HL-60(TB) leukemia): 20.4 µM
- TGI (HL-60(TB) leukemia): 46.5 µM
- GI50 (HOP-62 NSCLC): 13.9 µM
- TGI (HOP-62 NSCLC): 27.5 µM
- GI50 (HOP-92 NSCLC): 14.2 µM
- TGI (HOP-92 NSCLC): 28.6 µM
- GI50 (HS 578T breast): 15.2 µM
- TGI (HS 578T breast): 38.2 µM
- GI50 (HT29 colon): 14 µM
- TGI (HT29 colon): 27.9 µM
- GI50 (IGROV1 ovarian): 12.1 µM
- TGI (IGROV1 ovarian): 24.8 µM
- GI50 (K-562 leukemia): 14.3 µM
- TGI (K-562 leukemia): 43.5 µM
- GI50 (KM12 colon): 13.4 µM
- TGI (KM12 colon): 29.5 µM
- GI50 (LOX IMVI melanoma): 14 µM
- TGI (LOX IMVI melanoma): 27 µM
- GI50 (M14 melanoma): 12.8 µM
- TGI (M14 melanoma): 25.5 µM
- GI50 (MALME-3M melanoma): 15.1 µM
- TGI (MALME-3M melanoma): 28.8 µM
- GI50 (MCF7 breast): 12.2 µM
- TGI (MCF7 breast): 25.7 µM
- GI50 (MDA-MB-231 breast): 13.1 µM
- TGI (MDA-MB-231 breast): 26 µM
- GI50 (MDA-MB-435): 16.2 µM
- TGI (MDA-MB-435): 31.9 µM
- GI50 (MDA-MB-468 breast): 8.82 µM
- TGI (MDA-MB-468 breast): 21.3 µM
- GI50 (MOLT-4 leukemia): 11.6 µM
- TGI (MOLT-4 leukemia): 32.2 µM
- GI50 (NCI-H226 lung): 13.6 µM
- TGI (NCI-H226 lung): 28.9 µM
- GI50 (NCI-H23 lung): 15.1 µM
- TGI (NCI-H23 lung): 29.2 µM
- GI50 (NCI-H460 lung): 14.7 µM
- TGI (NCI-H460 lung): 28.8 µM
- GI50 (NCI-H522 lung): 13.3 µM
- TGI (NCI-H522 lung): 26.6 µM
- GI50 (NCI/ADR-RES ovarian): 16.6 µM
- TGI (NCI/ADR-RES ovarian): 31.5 µM
- GI50 (OVCAR-3 ovarian): 13.8 µM
- TGI (OVCAR-3 ovarian): 28 µM
- GI50 (OVCAR-4 ovarian): 14.3 µM
- TGI (OVCAR-4 ovarian): 28.1 µM
- GI50 (OVCAR-5 ovarian): 13.7 µM
- TGI (OVCAR-5 ovarian): 26.6 µM
- GI50 (OVCAR-8 ovarian): 15.5 µM
- TGI (OVCAR-8 ovarian): 30.7 µM
- GI50 (PC-3 prostate): 12.3 µM
- TGI (PC-3 prostate): 25.9 µM
- GI50 (RPMI-8226 leukemia): 23.6 µM
- TGI (RPMI-8226 leukemia): 69.2 µM
- GI50 (RXF 393 renal): 13 µM
- TGI (RXF 393 renal): 26.3 µM
- GI50 (SF-268 CNS): 14.4 µM
- TGI (SF-268 CNS): 31 µM
- GI50 (SF-295 CNS): 12.4 µM
- TGI (SF-295 CNS): 25 µM
- GI50 (SF-539 CNS): 14.7 µM
- TGI (SF-539 CNS): 28 µM
- GI50 (SK-MEL-2 melanoma): 14.4 µM
- TGI (SK-MEL-2 melanoma): 28.3 µM
- GI50 (SK-MEL-28 melanoma): 16.3 µM
- TGI (SK-MEL-28 melanoma): 30 µM
- GI50 (SK-MEL-5 melanoma): 15.7 µM
- TGI (SK-MEL-5 melanoma): 29.1 µM
- GI50 (SK-OV-3 ovarian): 14.9 µM
- TGI (SK-OV-3 ovarian): 28.3 µM
- GI50 (SN12C renal): 14.7 µM
- TGI (SN12C renal): 28.4 µM
- GI50 (SNB-19 CNS): 14.6 µM
- TGI (SNB-19 CNS): 27.7 µM
- GI50 (SNB-75 CNS): 10.8 µM
- TGI (SNB-75 CNS): 26.2 µM
- GI50 (SR leukemia): 10.6 µM
- TGI (SR leukemia): 26.2 µM
- GI50 (SW-620 colon): 14.4 µM
- TGI (SW-620 colon): 28.1 µM
- GI50 (T-47D breast): 11.7 µM
- TGI (T-47D breast): 24.1 µM
- GI50 (TK-10 renal): 13.8 µM
- TGI (TK-10 renal): 27 µM
- GI50 (U251 CNS): 15 µM
- TGI (U251 CNS): 29.6 µM
- GI50 (UACC-257 melanoma): 14.8 µM
- TGI (UACC-257 melanoma): 28.6 µM
- GI50 (UACC-62 melanoma): 11.8 µM
- TGI (UACC-62 melanoma): 24.1 µM
- GI50 (UO-31 renal): 10.6 µM
- TGI (UO-31 renal): 22.4 µM
